Measurements reported in patent publication US20240041042A1, “1-(PYRIDYL)-5-AZINYLPYRAZOLE DERIVATIVES, AND THEIR USE FOR CONTROL OF UNDESIRED PLANT GROWTH” (Bayer Aktiengesellschaft, priority 2020, published 2024).
Read-outs that look alike come from different tables or passages of the source.

Tests used:
Type in all cases: in vivo
[1] = system: Alopecurus myosuroides (ALOMY); assay: Post-emergence herbicidal action against ALOMY; details: visual rating about 3 weeks after treatment vs untreated controls (100% = plants have died, 0% = like control plants)
Procedure, shortened: (§1)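 Rates were 320 g/ha or below, applied as aqueous WP/EC spray with 0.5% additive (600 l/ha) onto one-leaf-stage plants. About 3 weeks later in the greenhouse, damage was scored visually against untreated plants on a 0–100% scale, where 100% means plants died.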

[2] = system: Amaranthus retroflexus (AMARE); assay: Post-emergence herbicidal action against AMARE
Procedure, shortened: as §1

Avena fatua (AVEFA) = assay: Post-emergence herbicidal action against AVEFA; details: visual rating about 3 weeks after treatment
Procedure, shortened: as §1

[3] = system: Digitaria sanguinalis (DIGSA); assay: Post-emergence herbicidal action against DIGSA; details: visual rating about 3 weeks after treatment
Protocol: Seeds of monocotyledonous and dicotyledonous weeds and crop plants are placed in sandy loam in plastic or organic planting pots, covered with soil and cultivated in a greenhouse under controlled growth conditions. 2 to 3 weeks after sowing, the test plants are treated at the one-leaf stage. The compounds of the invention, formulated in the form of wettable powders (WP) or as emulsion concentrates (EC), are then sprayed onto the green parts of the plants as aqueous suspension or emulsion with addition of 0.5% additive at a water application rate of 600 l/ha (converted). After the test plants have been kept in the greenhouse under optimum growth conditions for about 3 weeks, the activity of the preparations is rated visually in comparison to untreated controls. For example, 100% activity=the plants have died, 0% activity=like control plants.
Tables B1 to B13 below show the effects of selected compounds of the general formula (I) according to Table 1 on various harmful plants and at an application rate corresponding to 320 g/ha or lower, which were obtained by the experimental procedure mentioned above. The appendices “a”, “b” and “c” give differentiation by dosage used with otherwise the same harmful plants tested.

[4] = system: Echinochloa crus-galli (ECHCG); assay: Post-emergence herbicidal action against ECHCG
Procedure, shortened: as §1

Lolium rigidum (LOLRI) = assay: Post-emergence herbicidal action against LOLRI
Procedure, shortened: as §1

[5] = system: Matricaria inodora (MATIN); assay: Post-emergence herbicidal action against MATIN
Procedure, shortened: as §1

[6] = system: Pharbitis purpurea (PHBPU); assay: Post-emergence herbicidal action against PHBPU
Procedure, shortened: as §1

[7] = system: Polygonum convolvulus (POLCO); assay: Post-emergence herbicidal action against POLCO
Procedure, shortened: as §1

Setaria viridis (SETVI) = assay: Post-emergence herbicidal action against SETVI
Procedure, shortened: as §1

[8] = system: Verconica persica (VERPE); assay: Post-emergence herbicidal action against VERPE
Procedure, shortened: as §1

Viola tricolor (VIOTR) = assay: Post-emergence herbicidal action against VIOTR
Procedure, shortened: as §1

Oryza sativa (ORYSA) = details: crop plant compatibility
Procedure, shortened: (§2)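 Visual rating (% effect vs. untreated plants; 100% = plant death) made about 3 weeks after treatment. Plants had been sprayed at one-leaf stage, 2–3 weeks post-sowing, with aqueous WP/EC preparations containing 0.5% additive, 600 l/ha water volume; a, b, c mark dose levels.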

[9] = system: Abutilon theophrasti (ABUTH); assay: Post-emergence herbicidal action against ABUTH; details: visual rating about 3 weeks after treatment vs untreated controls (100% = plants have died, 0% = like control plants)
Procedure, shortened: as §1

Zea mays (ZEAMX) = details: for Post-emergence action against ZEAMX in % (crop plant compatibility): 20 g/ha, effect in comparison to untreated controls; for Post-emergence action against ZEAMX in %: crop plant compatibility, 80 g/ha, effect vs untreated controls
Procedure, shortened: as §2

[10] = 80 g/ha, visual rating about 3 weeks after treatment vs untreated controls (100% = plants have died, 0% = like control plants)
[11] = 320 g/ha, visual rating about 3 weeks after treatment
[12] = 20 g/ha, effect vs untreated controls
[13] = 80 g/ha, effect in comparison to untreated controls

Row | Compound | Post-emergence action against ALOMY in % ([1]; 320 g/ha) [%] | Post-emergence action against AVEFA in % (Avena fatua (AVEFA); 320 g/ha) [%] | Post-emergence action against DIGSA in % ([3]; 80 g/ha) [%] | Post-emergence action against DIGSA in % ([3]; 320 g/ha) [%] | Post-emergence action against ECHCG in % ([4]; dosage 80 g/ha) [%] | Post-emergence action against ECHCG in % ([4]; dosage 320 g/ha) [%] | Post-emergence action against LOLRI in % (Lolium rigidum (LOLRI); dosage 320 g/ha) [%] | Post-emergence action against MATIN in % ([5]; dosage 320 g/ha) [%] | Post-emergence action against PHBPU in % ([6]; dosage 80 g/ha) [%] | Post-emergence action against PHBPU in % ([6]; dosage 320 g/ha) [%] | Post-emergence action against POLCO in % ([7]; dosage 320 g/ha) [%] | Post-emergence action against SETVI in % (Setaria viridis (SETVI); dosage 80 g/ha) [%] | Post-emergence action against SETVI in % (Setaria viridis (SETVI); dosage 320 g/ha) [%] | Post-emergence action against VERPE in % ([8]; 320 g/ha, VERPE) [%] | Post-emergence action against VERPE in % ([8]; dosage 80 g/ha) [%] | Post-emergence action against VIOTR in % (Viola tricolor (VIOTR); 80 g/ha) [%] | Post-emergence action against VIOTR in % (Viola tricolor (VIOTR); 320 g/ha) [%] | Post-emergence action against ORYSA in % (Oryza sativa (ORYSA); [12]) [%] | Post-emergence action against LOLRI in % (Lolium rigidum (LOLRI); dosage 80 g/ha) [%] | Post-emergence action against ZEAMX in % (crop plant compatibility) (Zea mays (ZEAMX)) [%] | other results
1 | CCOC(=O)COc1nn(-c2ncccc2F)c(-c2cncc(F)c2)c1C(F)(F)F [Example I-141] | 90 | 80 | 90 | 90 | 80 | 80 | 90 | 90 | 80 | 90 | 80 | 90 | 90 | 90 | 90 | 80 | 80 | 10 |  |  | Post-emergence action against AMARE in % [2, 10]: 80%; Post-emergence action against AMARE in % [2, 11]: 90%; Post-emergence action against MATIN in % ([5]; dosage 80 g/ha): 80%; Post-emergence action against POLCO in % ([7]; dosage 80 g/ha): 80%
2 | COC(=O)C(C)COC(=O)[C@@H](C)Oc1nn(-c2ccccn2)c(-c2ccc(F)nc2)c1Cl (some centres unmarked) [Example I-267] | 90 | 90 |  | 90 |  | 90 | 100 |  |  | 90 | 80 | 90 | 90 | 90 | 90 | 90 | 90 |  | 90 | 0 | Post-emergence action against ABUTH in % ([9]; 80 g/ha): 80%; Post-emergence action against ABUTH in % ([9]; 320 g/ha): 90%; Post-emergence action against AMARE in % [2, 10]: 80%; Post-emergence action against AMARE in % [2, 11]: 80%; Post-emergence action against AVEFA in % (Avena fatua (AVEFA); 80 g/ha): 90%; Post-emergence action against POLCO in % ([7]; dosage 80 g/ha): 80%; Post-emergence action against ZEAMX in % (Zea mays (ZEAMX)): 20%
3 | COC(=O)[C@@H](C)Oc1nn(-c2ccccn2)c(-c2ccc(F)nc2)c1Br [Example I-252] | 90 | 80 | 90 | 90 | 80 | 90 | 80 | 80 |  | 90 | 80 | 80 | 80 | 80 | 80 |  | 80 | 10 | 80 | 10 | Post-emergence action against ALOMY in % ([1]; 80 g/ha): 80%; Post-emergence action against AVEFA in % (Avena fatua (AVEFA); 80 g/ha): 80%
4 | COC(=O)COc1nn(-c2ncccc2F)c(-c2ccc(F)nc2)c1Cl [Example I-304] | 90 | 90 | 90 | 90 | 80 | 90 | 90 | 90 | 80 | 90 |  | 90 | 90 | 90 | 80 | 80 | 90 |  |  | 20 | Post-emergence action against ABUTH in % ([9]; 80 g/ha): 80%; Post-emergence action against ABUTH in % ([9]; 320 g/ha): 90%; Post-emergence action against AMARE in % [2, 10]: 80%; Post-emergence action against AMARE in % [2, 11]: 90%; Post-emergence action against MATIN in % ([5]; dosage 80 g/ha): 90%
5 | C[C@@H](Oc1nn(-c2ncccc2F)c(-c2cncc(F)c2)c1C1CC1)C(=O)O [Example I-166] | 90 | 90 | 90 | 90 | 80 | 80 | 90 | 90 | 80 | 90 | 80 | 90 | 90 | 80 | 80 | 80 | 80 | 0 | 80 | 10 | Post-emergence action against ALOMY in % ([1]; 80 g/ha): 90%; Post-emergence action against AVEFA in % (Avena fatua (AVEFA); 80 g/ha): 90%; Post-emergence action against MATIN in % ([5]; dosage 80 g/ha): 80%; Post-emergence action against POLCO in % ([7]; dosage 80 g/ha): 80%; Post-emergence action against ORYSA in % (Oryza sativa (ORYSA); [13]): 20%
6 | O=C(COc1nn(-c2ncccc2F)c(-c2ccc(F)nc2)c1C1CC1)OCC1COC1 [Example I-264] | 90 | 90 | 80 | 80 | 90 | 90 | 90 | 80 | 80 | 80 |  | 90 | 90 | 90 | 80 | 90 | 90 | 0 | 90 | 10 | Post-emergence action against AVEFA in % (Avena fatua (AVEFA); 80 g/ha): 80%; Post-emergence action against ORYSA in % (Oryza sativa (ORYSA); [13]): 10%; Post-emergence action against ZEAMX in % (Zea mays (ZEAMX)): 20%
7 | COC(=O)C(C)OC(=O)C(C)Oc1nn(-c2ccccn2)c(-c2cncc(F)c2)c1Br (mixture of isomers) [Example I-176] | 90 |  | 80 | 90 | 80 | 90 | 80 | 80 |  |  | 80 | 80 | 80 |  |  |  | 80 | 0 | 80 |  | Post-emergence action against ABUTH in % ([9]; 320 g/ha): 80%; Post-emergence action against POLCO in % ([7]; dosage 80 g/ha): 80%; Post-emergence action against ORYSA in % (Oryza sativa (ORYSA); [13]): 10%
8 | CC(C)OC(=O)COc1nn(-c2ncccc2F)c(-c2ccc(F)nc2)c1C1CC1 [Example I-328] | 90 | 90 | 90 | 90 | 90 | 90 | 90 |  | 90 | 90 | 90 | 90 | 90 | 90 | 90 | 80 | 90 | 0 | 90 | 0 | Post-emergence action against ABUTH in % ([9]; 80 g/ha): 80%; Post-emergence action against ABUTH in % ([9]; 320 g/ha): 80%; Post-emergence action against ALOMY in % ([1]; 80 g/ha): 90%; Post-emergence action against AMARE in % [2, 10]: 90%; Post-emergence action against AMARE in % [2, 11]: 90%; Post-emergence action against AVEFA in % (Avena fatua (AVEFA); 80 g/ha): 90%; Post-emergence action against POLCO in % ([7]; dosage 80 g/ha): 90%; Post-emergence action against ZEAMX in % (Zea mays (ZEAMX)): 0%
